In general, inhibition refers to the drop in the measured response relative to a control, in per cent. The low end stands for a response near the control, the high end for a response far below the control. Broadly, the % Inhibition is how much of the control response was suppressed. Read a low % Inhibition as a weak effect.

The first assay addresses T1, Rat liver microsomal squalene synthetase (Rattus norvegicus, UniProt Q02769).
T1 construct: Rat liver microsome, the source of enzyme; from tissue; host or cells: rat liver microsomes
T1 sequence (Q02769 1-416): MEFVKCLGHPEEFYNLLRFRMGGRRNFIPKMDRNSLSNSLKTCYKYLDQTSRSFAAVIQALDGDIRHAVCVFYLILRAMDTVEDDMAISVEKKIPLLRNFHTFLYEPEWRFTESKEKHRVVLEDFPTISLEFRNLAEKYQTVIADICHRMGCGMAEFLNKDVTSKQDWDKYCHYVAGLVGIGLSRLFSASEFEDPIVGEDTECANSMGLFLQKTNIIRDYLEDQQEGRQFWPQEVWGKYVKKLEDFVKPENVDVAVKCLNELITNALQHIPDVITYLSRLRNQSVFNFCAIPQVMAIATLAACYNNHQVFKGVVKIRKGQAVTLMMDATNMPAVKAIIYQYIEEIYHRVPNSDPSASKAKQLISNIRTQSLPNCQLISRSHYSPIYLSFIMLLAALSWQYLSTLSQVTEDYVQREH
The assay can be described thus: In vitro inhibition of squalene synthetase. The assay is classed as biochemical. The following applies: 10 µM test compound; rat liver microsomes, labelled farnesyl pyrophosphate, 10 minutes at 37 °C; compared to controls with no test compound. The essentials: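 Percent inhibition at 10 µM (or 1 µM), against controls without compound, was scored from radioactive squalene formed from labelled farnesyl pyrophosphate by rat liver microsomal enzyme. Incubations were kept oxygen-free with nitrogen and stopped with ethanolic KOH; squalene was isolated by hexane extraction and an alumina column.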
On the technique in general: Microsomes from liver hold many membrane-bound enzymes, among them those of drug oxidation.
As to `C#CCN(Cc1ccc(Oc2ccccc2)cc1)C(=O)[C@H]1[C@@H](C(=O)O)[C@H](C(=O)O)[C@@H]1C(=O)N(CC#C)Cc1ccc(Oc2ccccc2)cc1` [Example 27, (1α,2β,3β,4α)-1,2-Di[N-propargyl-N-(4-phenoxybenzyl)aminocarbonyl]cyclobutane-3,4-dicarboxylic acid], 10 µM produced 79% inhibition.

Regarding `O=C(O)[C@H]1[C@H](C(=O)O)[C@H](C(=O)N(Cc2ccc(Oc3ccccc3)cc2)C2CC2)[C@H]1C(=O)N(Cc1ccc(Oc2ccccc2)cc1)C1CC1` [Example 30, (1α,2β,3β,4α)-1,2-Di[N-cyclopropyl-N-(4-phenoxybenzyl)aminocarbonyl]cyclobutane-3,4-dicarboxylic acid], testing at 10 µM gave an inhibition of 67%.

The molecule `CCCN(Cc1ccc(Oc2ccc3ccccc3c2)cc1)C(=O)C1C(C(=O)O)C(C(=O)O)C1C(=O)N(CCC)Cc1ccc(Oc2ccc3ccccc3c2)cc1` (stereo not drawn) [Example 88, (1α,2β,3β,4α)-1,2-Di[N-propyl-N-(4-naphth-2-yloxybenzyl)aminocarbonyl]cyclobutane-3,4-dicarboxylic acid] had an inhibition at 10 µM of 86%.

Turning to `CN(C(=O)[C@H]1[C@@H](C(=O)O)[C@H](C(=O)O)[C@@H]1C(=O)N(C)c1ccc(-c2ccccc2)cc1)c1ccc(-c2ccccc2)cc1` [Example 22, (1α,2β,3β,4α)-1,2-Di[N-methyl-N-biphenylamino-carbonyl]cyclobutane-2,4-dicarboxylic acid], at 10 µM the inhibition was 20%.

The molecule `O=C(O)[C@H]1[C@H](C(=O)O)[C@H](C(=O)N(Cc2ccc(Oc3ccccc3)cc2)Cc2ccc(Oc3ccccc3)cc2)[C@H]1C(=O)N(Cc1ccc(Oc2ccccc2)cc1)Cc1ccc(Oc2ccccc2)cc1` [Example 19, (1α,2β,3β,4α)-1,2-Di[N,N-di(4-phenoxybenzyl)aminocarbonyl]cyclobutane-3,4-dicarboxylic acid] yielded an inhibition at 10 µM of 86%.

Turning to `CCCN(Cc1ccc(C(=O)c2ccccc2)cc1)C(=O)C1C(C(=O)O)C(C(=O)O)C1C(=O)N(CCC)Cc1ccc(C(=O)c2ccccc2)cc1` (stereo not drawn) [Example 118B, (1α,2β,3β,4α)-1,2-Di[N-propyl-N-(4-benzoylbenzyl)aminocarbonyl]cyclobutane-3,4-carboxylic acid], the inhibition at 10 µM is 51%.

As to “(1α,2β,3β,4α)-1,2-Di[N-propyl-N-(4-phenoxybenzyl)aminocarbonyl]-3,4-di[(hydroxyimino)methyl]-cyclobutane [Example 79B]”, the “% Inhibition at 10 µM” value is given as 83%.

With `O=C(O)[C@H]1[C@H](C(=O)O)[C@H](C(=O)N(CCc2ccccc2)Cc2ccc(Oc3ccccc3)cc2)[C@H]1C(=O)N(CCc1ccccc1)Cc1ccc(Oc2ccccc2)cc1` [Example 56, (1α,2β,3β,4α)-1,2-Di[N-(4-phenoxybenzyl)-N-phenethylaminocarbonyl] cyclobutane-3,4-dicarboxylic acid], 10 µM produced 86% inhibition.

Take `CCCN(Cc1ccc(Nc2ccccc2)cc1)C(=O)[C@H]1[C@@H](C(=O)O)[C@H](C(=O)O)[C@@H]1C(=O)N(CCC)Cc1ccc(Nc2ccccc2)cc1` [Example 67C, (1α,2β,3β,4α)-1,2-Di[N-propyl-N-(4-phenylaminobenzyl)aminocarbonyl]cyclobutane-3,4-dicarboxylic acid]: 10 µM produced 87% inhibition.

Molecule `CCCN(Cc1ccc(Cc2ccccc2)cc1)C(=O)[C@H]1[C@@H](C(=O)O)[C@H](C(=O)O)[C@@H]1C(=O)N(CCC)Cc1ccc(Cc2ccccc2)cc1` [Example 25, (1α,2β,3β,4α)-1,2-Di[N-propyl-N-(4-benzylbenzyl)aminocarbonyl]cyclobutane-3,4-dicarboxylic acid] yielded an inhibition at 10 µM of 84%.

Regarding `CCCN(Cc1ccc(Oc2ccccc2)cc1)C(=O)[C@@H]1[C@H](CC(=O)O)[C@@H](CC(=O)O)[C@H]1C(=O)N(CCC)Cc1ccc(Oc2ccccc2)cc1` (relative stereo) [Example 103B, (1α,2β,3β,4α)-1,2-Di[-N-propyl-N-(4-phenoxybenzyl)aminocarbonyl]cyclobutane-3-4-diacetic acid], testing at 10 µM gave an inhibition of 90%.

`CN(Cc1cccc(Oc2ccc(F)cc2)c1)C(=O)[C@H]1[C@@H](C(=O)O)[C@H](C(=O)O)[C@@H]1C(=O)N(C)Cc1cccc(Oc2ccc(F)cc2)c1` [Example 21, (1α,2β,3β,4α)-1,2-Di[N-methyl-N-(3-[4-fluorophenoxy]benzyl)aminocarbonyl]cyclobutane-3,4-dicarboxylic acid] gave an inhibition at 10 µM of 52%.

Molecule `CCCN(C(=O)C1C(C(=O)O)C(C(=O)O)C1C(=O)N(CCC)c1ccc(Oc2ccccc2)cc1)c1ccc(Oc2ccccc2)cc1` (stereo not drawn) [Example 39C, (1α,2β,3β,4α)-1,2-Di[N-propyl-N-(4-phenoxyphenyl)aminocarbonyl]cyclobutane-3,4-dicarboxylic acid] registered an inhibition at 10 µM of 59%.

The same assay, now with this note: values marked * in Table 1: 1 µM test compound; rat liver microsomes, labelled farnesyl pyrophosphate, 10 minutes at 37 °C.
As to `CCCN(Cc1ccc(Oc2nccs2)cc1)C(=O)C1C(C(=O)O)C(C(=O)O)C1C(=O)N(CCC)Cc1ccc(Oc2nccs2)cc1` (stereo not shown) [Example 85], at 1 µM the inhibition was 56%.

`C[C@H](c1ccccc1)N(Cc1ccc(Oc2ccccc2)cc1)C(=O)[C@H]1[C@@H](C(=O)O)[C@H](C(=O)O)[C@@H]1C(=O)N(Cc1ccc(Oc2ccccc2)cc1)[C@H](C)c1ccccc1` [Example 35] yielded an inhibition at 1 µM of 59%.

Molecule `CCCN(Cc1ccc(Oc2ccccc2)cc1)C(=O)C1C(NC(=O)CCC(=O)O)C(C(=O)O)C1C(=O)N(CCC)Cc1ccc(Oc2ccccc2)cc1` (stereo not drawn) [Example 75B, (1α,2β,3β,4α)-1,2-Di[N-propyl-N-(4-phenoxybenzyl)aminocarbonyl]-4-(3-carboxypropionylamino)cyclobutane-3-carboxylic acid] yielded an inhibition at 1 µM of 73%.

On to `O=C(O)C1C(C(=O)O)C(C(=O)N(Cc2ccc(Oc3ccccc3)cc2)Cc2ccco2)C1C(=O)N(Cc1ccc(Oc2ccccc2)cc1)Cc1ccco1` (stereo not drawn) [Example 44, (1α,2β,3β,4α)-1,2-Di[N-(furan-2-ylmethyl)-N-(4-phenoxybenzyl)aminocarbonyl)cyclobutane-3,4-dicarboxylic acid], for which the inhibition at 1 µM came out at 56%.

With `O=C(O)C1C(C(=O)O)C(C(=O)N(Cc2ccc(Oc3ccccc3)cc2)CC2CC2)C1C(=O)N(Cc1ccc(Oc2ccccc2)cc1)CC1CC1` (single isomer, unassigned; (-)) [Example 129B, (-)-(1α,2β,3β,4α)-1,2-Di[N-cyclopropylmethyl-N-(4-phenoxybenzyl)aminocarbonyl]cyclobutane-3,4-dicarboxylic acid], at 1 µM the inhibition was 92%.

For “(1α,2β,3β,4α)-1,2-Di[N-propyl-N-(4-phenoxybenzyl)aminocarbonyl]cyclobutane-3,4-dicarboxylic acid mono-l-Norleucine amide [Example 113]”, the “% Inhibition at 1 µM” value was 31* %.

`CCCN(Cc1ccc(Oc2ccccc2)cc1)C(=O)C1C(C=CC(=O)O)C(C(=O)O)C1C(=O)N(CCC)Cc1ccc(Oc2ccccc2)cc1` (stereo not shown) [Example 76B] returned an inhibition at 1 µM of 57%.

The molecule `CCOC(=O)CCN(Cc1ccc(Oc2ccccc2)cc1)C(=O)[C@H]1[C@@H](C(=O)O)[C@H](C(=O)O)[C@@H]1C(=O)N(CCC(=O)OCC)Cc1ccc(Oc2ccccc2)cc1` [Example 60, (1α,2β,3β,4α)-1,2-Di[N-(4-phenoxybenzyl)-N-(ethoxycarbonylethyl)aminocarbonyl]cyclobutane-3,4-dicarboxylic acid] returned an inhibition at 1 µM of 65%.

Regarding `CCCN(Cc1ccc(Sc2ccccc2)cc1)C(=O)C1C(C(=O)O)C(C(=O)O)C1C(=O)N(CCC)Cc1ccc(Sc2ccccc2)cc1` (stereo not drawn) [Example 68B, (1α,2β,3β,4α)-1,2-Di[N-propyl-N-(4-phenylthiobenzyl)aminocarbonyl]cyclobutane-3,4-dicarboxylic acid], 1 µM produced 84% inhibition.

The molecule `CCCN(Cc1ccc(Oc2ccccc2)cc1)C(=O)C1C(CCC(=O)O)C(C(=O)O)C1C(=O)N(CCC)Cc1ccc(Oc2ccccc2)cc1` (stereo not shown) [Example 77B] had an inhibition at 1 µM of 51%.

Staying with this assay, now noted: values marked * in Table 1: 1 µM test compound; rat liver microsomes, labelled farnesyl pyrophosphate, 10 minutes at 37 °C; 1 µM.
`CCCN(Cc1ccc(Oc2ccccc2)cc1)C(=O)C1C(C(=O)O)C(C(=O)NC(CO)C(=O)O)C1C(=O)N(CCC)Cc1ccc(Oc2ccccc2)cc1` (single isomer, unassigned) [Example 110B, (1α,2β,3β,4α)-1,2-Di[N-propyl-N-(4-phenoxybenzyl)aminocarbonyl]cyclobutane-3,4-dicarboxylic acid mono-Serine amide]: the “% Inhibition at 1 µM” value is on record as 69* %.

The subject of another assay is Cholesterol Synthesis. The assay can be described thus: In vivo inhibition of cholesterol synthesis. The following applies: Cynomolgus monkeys, 2 males and 2 females per group, 20 mg/kg, po, daily for a total of 5 days; average. The method, then: Monkeys, Cynomolgus, 2 males and 2 females per group, Controls: 3.7-6.1 Kg body weight, Dosed animals: 4.8-5.6 Kg body weight) were fasted overnight and bled in the morning. Plasma samples were prepared and analyzed for total cholesterol, HDL-cholesterol and triglycerides. […] Dosing was continued daily for a total of 5 days. Prior to the last dose the animals were fasted overnight and bled after dosing but before feeding. Plasma samples (anticoagulated with EDTA) were prepared and analyzed as before. One-sample t-tests were calculated to test for significant change within a group across the experiment.
For `CCCN(Cc1ccc(Oc2ccccc2)cc1)C(=O)[C@H]1[C@@H](C(=O)O)[C@H](C(=O)O)[C@@H]1C(=O)N(CCC)Cc1ccc(Oc2ccccc2)cc1` (racemic) [Example 17, (1α,2β,3β,4α)-1,2-Di[N-propyl-N-(4-phenoxybenzyl)aminocarbonyl]cyclobutane-3,4-dicarboxylic acid], the “Total plasma cholesterol was lowered” value is listed as 15.5%.
